Data: patent publication US6472418B1, “Non-peptide NK1 receptors antagonists” (Warner-Lambert Company, priority 1998, dated 2002)
pIC50: −log10 of the molar value.

Tested on: not given
Test: not given
Conditions: not given

Molecule	melting point [°C]
C[C@H](NC(=O)[C@@](C)(Cc1c[nH]c2ccccc12)NCc1cc2ccccc2o1)c1ccncc1 (relative stereo) [Example 3, 2-[(Benzofuran-2-ylmethyl)-amino]-3-(1H-indol-3-yl)-2-methyl-N-(1-pyridin-4-yl-ethyl)-propionamide, [R(R*,S*)]]	66 to 69
C[C@H](NC(=O)[C@@H](Cc1c[nH]c2ccccc12)NCCc1cc2ccccc2o1)c1ccccc1 (relative stereo) [Example 7, 2-(2-Benzofuran-2-yl-ethylamino)-3-(1H-indol-3-yl)-N-(1-phenyl-ethyl)-propionamide, [R-(R*,S*)]]	105 to 107
C[C@H](NC(=O)[C@@H](Cc1c[nH]c2ccccc12)NCc1cnc2ccccc2c1)c1ccccc1 (relative stereo) [Example 11, 3-(1H-Indol-3-yl)-N-(1-phenyl-ethyl)-2-[(quinolin-3-ylmethyl)-amino]-propionamide, [R-(R*,S*)]]	161 to 163
C[C@H](NC(=O)[C@@](C)(Cc1c[nH]c2ccccc12)NCc1coc2ccccc12)c1ccccc1 (relative stereo) [Example 19, 2-[(Benzofuran-3-ylmethyl)-amino]-3-(1H-indol-3-yl)-2-methyl-N-(1-phenyl-ethyl)-propionamide, [R-(R*,S*)]]	104 to 106

More lines, now with the values ahead:

melting point [°C]	Molecule
148 to 152.5	C[C@H](NC(=O)[C@@H](Cc1c[nH]c2ccccc12)NCc1nc2ccccc2[nH]1)c1ccccc1 (relative stereo) [Example 9, 2-[(1H-Benzoimidazol-2-ylmethyl)-amino]-3-(1H-indol-3-yl)-N-(1-phenyl-ethyl)-propionamide, [R-(R*,S*)]]
118 to 121	C[C@H](NC(=O)[C@@](C)(Cc1c[nH]c2ccccc12)NCc1cc2ccccc2o1)c1ccccc1 (relative stereo) [Example 18, 2-[(Benzofuran-2-ylmethyl)-amino]-3-(1H-indol-3-yl)-2-methyl-N-(1-phenyl-ethyl)-propionamide, [R-(R*,S*)]]
123 to 133	C[C@H](NC(=O)[C@@](C)(Cc1c[nH]c2ccccc12)NCc1ccc[nH]1)c1ccccc1 (relative stereo) [Example 20, 3-(1H-Indol-3-yl)-2-methyl-N-(1-phenyl-ethyl)-2-[(1H-pyrrol-2-ylmethyl)-amino]-propionamide, (R-(R*,S*)]]
176 to 178	C[C@H](NC(=O)[C@@](C)(Cc1c[nH]c2ccccc12)NC(=O)NCc1cc2ccccc2o1)c1ccccc1 (relative stereo) [Example 22, 2-(3-Benzofuran-2-ylmethyl-ureido)-3-(1H-indol-3-yl)-2-methyl-N-(1-phenyl-ethyl)-propionamide, [R-(R*,S*)]]
53 to 57	CC(NC(=O)[C@@](C)(Cc1c[nH]c2ccccc12)NCc1cc2ccccc2o1)c1ccn(C)c1 (stereo in doubt) [Example 2, 2-[(Benzofuran-2-ylmethyl)-amino]-3-(1H-indol-3-yl)-2-methyl-N-[1-(1-methyl-1H-pyrrol-3-yl)-ethyl]-propionamide, [R-(R*,R*)] and [R-(R*,S*)]]
57 to 62	CC(C)(NC(=O)[C@@](C)(Cc1c[nH]c2ccccc12)NCc1cc2ccccc2o1)c1ccccc1 [Example 1, 2-[(Benzofuran-2-ylmethyl)-amino]-3-(1H-indol-3-yl)-2-methyl-N-(1-methyl-1-phenyl-ethyl)-propionamide, (R)]

Target: T1, Human NK1 Receptor (Homo sapiens, UniProt P25103)
T1 construct: endogenous in cells; host or cells: Human lymphoma IM9 cells (whole cells)
Test: In Vitro Human NK1 Receptor Binding Assay ([125I]Bolton-Hunter substance P displacement, IM9 cells)
Conditions: Human lymphoma IM9 cells, [125I]Bolton-Hunter substance P (0.05-0.1 nM), 50 min at 21° C.; Table 1; read-out: NK1 binding IC50
How it was run: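 Radioligand displacement on whole IM9 human lymphoma cells (2.5×10^6 cells/mL) using [125I]Bolton-Hunter substance P (0.05-0.1 nM), 50 min at 21° C in Tris pH 7.4/MnCl2 buffer with protease inhibitors. Non-specific binding defined by […] [Sar9, Met(O2)11] substance P. Filtration, gamma counting, iterative curve fitting.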

T1 sequence (P25103 whole entry): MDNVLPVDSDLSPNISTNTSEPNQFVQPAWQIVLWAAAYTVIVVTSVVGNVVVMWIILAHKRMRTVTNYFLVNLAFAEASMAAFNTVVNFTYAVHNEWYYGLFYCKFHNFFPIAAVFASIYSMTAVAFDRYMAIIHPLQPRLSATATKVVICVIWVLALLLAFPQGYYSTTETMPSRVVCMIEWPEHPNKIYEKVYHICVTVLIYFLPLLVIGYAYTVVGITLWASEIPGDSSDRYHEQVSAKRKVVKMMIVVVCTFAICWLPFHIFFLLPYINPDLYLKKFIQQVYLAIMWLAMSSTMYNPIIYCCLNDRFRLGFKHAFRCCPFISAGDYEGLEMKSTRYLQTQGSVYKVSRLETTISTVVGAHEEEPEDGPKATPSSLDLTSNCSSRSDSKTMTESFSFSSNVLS

Molecule	pIC50
C[C@H](NC(=O)[C@@](C)(Cc1c[nH]c2ccccc12)NCc1cc2ccccc2o1)c1ccncc1 (relative stereo) [Example 3, 2-[(Benzofuran-2-ylmethyl)-amino]-3-(1H-indol-3-yl)-2-methyl-N-(1-pyridin-4-yl-ethyl)-propionamide, [R(R*,S*)]]	8.22
C[C@H](NC(=O)[C@@H](Cc1c[nH]c2ccccc12)NCCc1cc2ccccc2o1)c1ccccc1 (relative stereo) [Example 7, 2-(2-Benzofuran-2-yl-ethylamino)-3-(1H-indol-3-yl)-N-(1-phenyl-ethyl)-propionamide, [R-(R*,S*)]]	8.48
C[C@H](NC(=O)[C@@H](Cc1c[nH]c2ccccc12)NCc1cnc2ccccc2c1)c1ccccc1 (relative stereo) [Example 11, 3-(1H-Indol-3-yl)-N-(1-phenyl-ethyl)-2-[(quinolin-3-ylmethyl)-amino]-propionamide, [R-(R*,S*)]]	7.34
C[C@H](NC(=O)[C@@](C)(Cc1c[nH]c2ccccc12)NCc1coc2ccccc12)c1ccccc1 (relative stereo) [Example 19, 2-[(Benzofuran-3-ylmethyl)-amino]-3-(1H-indol-3-yl)-2-methyl-N-(1-phenyl-ethyl)-propionamide, [R-(R*,S*)]]	7.24

Second part, the molecule after the results:

pIC50	Molecule
6.95	C[C@H](NC(=O)[C@@H](Cc1c[nH]c2ccccc12)NCc1nc2ccccc2[nH]1)c1ccccc1 (relative stereo) [Example 9, 2-[(1H-Benzoimidazol-2-ylmethyl)-amino]-3-(1H-indol-3-yl)-N-(1-phenyl-ethyl)-propionamide, [R-(R*,S*)]]
8.36	C[C@H](NC(=O)[C@@](C)(Cc1c[nH]c2ccccc12)NCc1cc2ccccc2o1)c1ccccc1 (relative stereo) [Example 18, 2-[(Benzofuran-2-ylmethyl)-amino]-3-(1H-indol-3-yl)-2-methyl-N-(1-phenyl-ethyl)-propionamide, [R-(R*,S*)]]
6.09	C[C@H](NC(=O)[C@@](C)(Cc1c[nH]c2ccccc12)NCc1ccc[nH]1)c1ccccc1 (relative stereo) [Example 20, 3-(1H-Indol-3-yl)-2-methyl-N-(1-phenyl-ethyl)-2-[(1H-pyrrol-2-ylmethyl)-amino]-propionamide, (R-(R*,S*)]]
8.54	C[C@H](NC(=O)[C@@](C)(Cc1c[nH]c2ccccc12)NC(=O)NCc1cc2ccccc2o1)c1ccccc1 (relative stereo) [Example 22, 2-(3-Benzofuran-2-ylmethyl-ureido)-3-(1H-indol-3-yl)-2-methyl-N-(1-phenyl-ethyl)-propionamide, [R-(R*,S*)]]
7.64	CC(NC(=O)[C@@](C)(Cc1c[nH]c2ccccc12)NCc1cc2ccccc2o1)c1ccn(C)c1 (stereo in doubt) [Example 2, 2-[(Benzofuran-2-ylmethyl)-amino]-3-(1H-indol-3-yl)-2-methyl-N-[1-(1-methyl-1H-pyrrol-3-yl)-ethyl]-propionamide, [R-(R*,R*)] and [R-(R*,S*)]]
6.23	CC(C)(NC(=O)[C@@](C)(Cc1c[nH]c2ccccc12)NCc1cc2ccccc2o1)c1ccccc1 [Example 1, 2-[(Benzofuran-2-ylmethyl)-amino]-3-(1H-indol-3-yl)-2-methyl-N-(1-methyl-1-phenyl-ethyl)-propionamide, (R)]

Same assay, conditions: Table 4; [125I]Bolton-Hunter substance P displacement, human IM9 cells; read-out: IC50 (nM) hNK1

Molecule	IC50 [nM]
Toluene-4-sulfonic acid 3-{[2-(1H-indol-3-yl)-1-methyl-1-(1-phenyl-ethylcarbamoyl)-ethylamino]-methyl}-phenyl ester [compound 342]	5090

Same assay, conditions: Table 5; [125I]Bolton-Hunter substance P displacement, human IM9 cells; read-out: IC50 (nM) hNK1

Molecule	IC50 [nM]
CC(NC(=O)C(Cc1c[nH]c2ccccc12)NCc1ccc(C=Cc2ccccc2)o1)c1ccccc1 (stereo not drawn) [compound 362]	> 10000
CC(NC(=O)C(Cc1c[nH]c2ccccc12)NCc1ccc(OCCCC(C)(C)C(=O)O)cc1)c1ccccc1 (stereo not drawn) [compound 364]	1250
CC(C)C=CCC1=CCC(CNC(Cc2c[nH]c3ccccc23)C(=O)NC(C)c2ccccc2)CC1 (stereo not drawn) [compound 366]	4050
CC(NC(=O)C(Cc1c[nH]c2ccccc12)NCc1ccc(N2CCOCC2)cc1Cl)c1ccccc1 (stereo not drawn) [compound 368]	2240
CC(NC(=O)C(Cc1c[nH]c2ccccc12)NCc1coc2ccccc2c1=O)c1ccccc1 (stereo not drawn) [compound 371]	> 10000
COC(=O)c1ccc(CNC(Cc2c[nH]c3ccccc23)C(=O)NC(C)c2ccccc2)cc1 (stereo not drawn) [compound 374]	1910
CCCc1nc(-n2cccc2)c(CNC(Cc2c[nH]c3ccccc23)C(=O)NC(C)c2ccccc2)[nH]1 (stereo not drawn) [compound 375]	165
CC(NC(=O)C(Cc1c[nH]c2ccccc12)NCC=Cc1ccc2c(c1)OCO2)c1ccccc1 (stereo not drawn) [compound 377]	593
CC(NC(=O)C(Cc1c[nH]c2ccccc12)NCC=Cc1ccc(OCc2ccccc2)cc1)c1ccccc1 (stereo not drawn) [compound 378]	932
CC(NC(=O)C(Cc1c[nH]c2ccccc12)NCc1ccc(OCc2ccccc2)cc1)c1ccccc1 (stereo not drawn) [compound 379]	587
CSc1ccc(CNC(Cc2c[nH]c3ccccc23)C(=O)NC(C)c2ccccc2)cc1 (stereo not drawn) [compound 383]	252
CC(NC(=O)C(Cc1c[nH]c2ccccc12)NCc1ccc2c(c1)OCO2)c1ccccc1 (stereo not drawn) [compound 386]	240
CC(NC(=O)C(Cc1c[nH]c2ccccc12)NCc1ccccc1Sc1ccc(Cl)cc1)c1ccccc1 (stereo not drawn) [compound 387]	201
CC=C(C)CCC=C(C)CNC(Cc1c[nH]c2ccccc12)C(=O)NC(C)c1ccccc1 (stereo not drawn) [compound 389]	2570
CC(NC(=O)C(Cc1c[nH]c2ccccc12)NCc1ccc(-c2ccc([N+](=O)[O-])cc2)o1)c1ccccc1 (stereo not drawn) [compound 390]	50
CC(NC(=O)C(Cc1c[nH]c2ccccc12)NCc1cccnc1)c1ccccc1 (stereo not drawn) [compound 393]	802
CC(NC(=O)C(Cc1c[nH]c2ccccc12)NCc1ccccn1)c1ccccc1 (stereo not drawn) [compound 395]	> 10000
CC(NC(=O)C(Cc1c[nH]c2ccccc12)NCc1cccs1)c1ccccc1 (stereo not drawn) [compound 396]	1070
COc1ccc(CNC(Cc2c[nH]c3ccccc23)C(=O)NC(C)c2ccccc2)cc1OC (stereo not drawn) [compound 397]	> 10000
CC(NC(=O)C(Cc1c[nH]c2ccccc12)NCc1cc(C(F)(F)F)cc(C(F)(F)F)c1)c1ccccc1 (stereo not drawn) [compound 398]	> 10000
CC(NC(=O)C(Cc1c[nH]c2ccccc12)NCc1cccc(F)c1)c1ccccc1 (stereo not drawn) [compound 401]	39
CC(NC(=O)C(Cc1c[nH]c2ccccc12)NCc1ccoc1)c1ccccc1 (stereo not drawn) [compound 402]	881
CC(NC(=O)C(Cc1c[nH]c2ccccc12)NCc1ccsc1)c1ccccc1 (stereo not drawn) [compound 404]	2390
CC(NC(=O)C(Cc1c[nH]c2ccccc12)NCc1ccco1)c1ccccc1 (stereo not drawn) [compound 405]	429

The remaining lines, values ahead:

IC50 [nM]	Molecule
5280	CC(NC(=O)C(Cc1c[nH]c2ccccc12)NCC1CC=C(CCCC(C)(C)O)CC1)c1ccccc1 (stereo not drawn) [compound 365]
236	CCOC(=O)Nc1ccccc1CNC(Cc1c[nH]c2ccccc12)C(=O)NC(C)c1ccccc1 (stereo not drawn) [compound 367]
450	CNS(=O)(=O)c1cc(Cl)ccc1CNC(Cc1c[nH]c2ccccc12)C(=O)NC(C)c1ccccc1 (stereo not drawn) [compound 369]
534	CC(NC(=O)C(Cc1c[nH]c2ccccc12)NCC(Cc1ccccc1)c1ccccc1)c1ccccc1 (stereo not drawn) [compound 370]
> 10000	CC(NC(=O)C(Cc1c[nH]c2ccccc12)NCC1CSc2c([nH]c3ccccc23)C1=O)c1ccccc1 (stereo not drawn) [compound 372]
507	Cc1c(-c2ccccc2)occ(CNC(Cc2c[nH]c3ccccc23)C(=O)NC(C)c2ccccc2)c1=O (stereo not drawn) [compound 373]
> 10000	CC(NC(=O)C(Cc1c[nH]c2ccccc12)NCC(=Cc1ccccc1)c1ccccc1)c1ccccc1 (stereo not drawn) [compound 376]
500	CC(NC(=O)C(Cc1c[nH]c2ccccc12)NCCCc1cccc2ccccc12)c1ccccc1 (stereo not drawn) [compound 380]
> 10000	Cc1ccc(S(=O)(=O)Oc2cccc(CNC(Cc3c[nH]c4ccccc34)C(=O)NC(C)c3ccccc3)c2)cc1 (stereo not drawn) [compound 381]
> 10000	CC(NC(=O)C(Cc1c[nH]c2ccccc12)NCc1cccc(OCc2ccccc2)c1)c1ccccc1 (stereo not drawn) [compound 382]
2350	CC(NC(=O)C(Cc1c[nH]c2ccccc12)NCc1ccc(Oc2ccccc2)cc1)c1ccccc1 (stereo not drawn) [compound 384]
1460	CC(NC(=O)C(Cc1c[nH]c2ccccc12)NCc1ccc(-c2ccccc2)cc1)c1ccccc1 (stereo not drawn) [compound 385]
846	CC(NC(=O)C(Cc1c[nH]c2ccccc12)NCc1ccc2c(c1)Cc1ccccc1-2)c1ccccc1 (stereo not drawn) [compound 391]
> 10000	Cc1cc(CNC(Cc2c[nH]c3ccccc23)C(=O)NC(C)c2ccccc2)c(C)n1-c1ccccc1 (stereo not drawn) [compound 392]
158	CC(NC(=O)C(Cc1c[nH]c2ccccc12)NCc1ccc2ccccc2c1)c1ccccc1 (stereo not drawn) [compound 394]
140	CC(NC(=O)C(Cc1c[nH]c2ccccc12)NCc1cc(F)cc(F)c1)c1ccccc1 (stereo not drawn) [compound 399]
13	CC(NC(=O)C(Cc1c[nH]c2ccccc12)NCc1cccc(Cl)c1)c1ccccc1 (stereo not drawn) [compound 400]
3910	CC(NC(=O)C(Cc1c[nH]c2ccccc12)NCCCc1ccccc1)c1ccccc1 (stereo not drawn) [compound 403]
